Source: patent US20060252774A1, “Regulation of type 5 adenylyl cyclase for treatment of neurodegenerative and cardiac diseases” (priority 2002, published 2006)
Where “and” joins values, the source holds several entries; their conditions need not be identical. Equal entries are not always repeated. Entries after “also recorded” stand apart in the source; their conditions may differ.

Columns and labels:
[1] = molecular target: T1, AC5 (Canis lupus familiaris, UniProt P30803); experiment: AC catalytic activity inhibition, AC5 isoform; assay type: biochemical; design: IC50 for AC5; other: 5 mM MgCl2 with Gsalpha/GTPgammaS/forskolin (50 micro M); other: in the presence of Gsalpha/GTPgammaS/forskolin; other: 10 micro M; details: for IC50: 5 mM MgCl2 with Gsalpha/GTPgammaS/forskolin (50 micro M)
Text: FIG. 11. […] The relative inhibitory activity versus control (% control activity) for various AC isoforms are shown. Data are means±S.D. of quadruplicate determinations.
Classic inhibitors of AC include adenosine analogs or P-site inhibitors, and MDL12330A, a non-nucleic acid inhibitor. However, not much was known about the isoform selectivity of these inhibitors. […] It was previously noted that AC2 was less sensitive to THFA than the other isoforms, giving a selectivity ratio of 1.8 when compared between AC6 and AC2.
Inventors will first determine the selectivity among the AC isoforms (FIG. 12). […] The IC50 values were calculated to be 0.32 micro M for AC5, 11.1 micro M for AC3, 65.3 micro M for AC2. The selectivity ratio of HI30435 was 207 between AC5 and AC2. […] The selectivity ratio was 18 between AC5 and AC2.

[2] = molecular target: T1, AC5; experiment: Adenyl cyclase stimulation by forskolin derivatives, High five cell membranes overexpressing type V; assay type: biochemical; design: made in house; host or cells: High Five insect cells (membranes); details: forskolin derivatives
Procedure: FIG. 15: Effect of forskolin, 6[3-(dimethylamino)propionyl]-14,15-dihydroforskolin, and NKH477 on adenyl cyclase [isforms.] isoforms: Forskolin derivatives dose response effect (A-C). High five cell membranes overexpressing type II (A), type III (B), and type V (C) adenyl cyclases. Adenyl cyclase activity was measured in the presence of 5 mM of MgCl2 with various concentrations of forskolin (closed circles), 6[3-(dimethylamino)propionyl]-14,15-dihydroforskolin (D, open triangles) or NKH477 (open circles). Means±SEM from 4 independent experiments are shown. *, p<0.01 differences from the value with forskolin.

[3] = tested on: conscious WT and AC5KO mice; experiment: Physiological studies in conscious mice: HR (ECG) and arterial pressure; assay type: in vivo, mouse; details: for increase in HR: 1 μg/g i.v.; for change of HR: 0.75 mg/kg i.v.
Text: FIG. 19: Muscarinic regulation of cardiac function in vivo. A, Effects of atropine. […] B, Effect of ACh. […] C, Baroreflex regulation of HR.
In AC5KO and WT mice, four ECG wires (New England Electric Wire Corporation, Lisbon, N.H., USA) were placed subcutaneously, a silicone elastomer tubing (Cardiovascular Instrument Corp., Wakefield, Mass., USA) was inserted into the right external jugular vein and a 1.4 F micromanometer catheter (Millar Instruments, Inc., Houston, Tex., USA) was inserted into the lower abdominal aorta via the femoral artery as described previously with some modifications. The ECG wires, the silicone elastomer tubing and the micromanometer catheter were tunneled subcutaneously to the back, externalized, and secured in a plastic cap. On the day of the study, each mouse was placed in the mouse holder, the jugular venous catheter was accessed and connected to a microliter syringe (Hamilton Co., Reno, Nev., USA), the 1.4 F micromanometer catheter was connected to a recorder (Dash 4u; Astro-Med, Inc., West Warwick, R.I., USA) and the ECG wires were connected to an ECG amplifier (Gould Inc., Cleveland, Ohio, USA). All experiments were recorded with animals in the conscious state. After at least 6 hours recovery from the implantation of the catheter, when a stable HR was achieved, the baseline ECG and arterial pressure (AP) were recorded for 5 min. Ach (0.05 μg/g) was then administered intravenously (i.v.), and the ECG and AP recording were repeated. A recovery period of 15 min was allowed for the HR and AP to return to baseline before administering the next drug. Baseline HR slowing was examined in response to phenylephrine (0.2 μg/g i.v.).
Electrocardiogram (ECG) wires, a jugular vein catheter for drug infusion, and a femoral artery catheter for arterial pressure monitoring were implanted under anesthesia as described previously. […] Intravenous (i.v.) infusion of ISO (0.04 μg/kg/min i.v. for 5 min) was performed using an infusion pump. To examine the responses to a muscarinic agonist, acetylcholine (ACh) (25 mg/kg i.p.) was co-administered i.p. during the i.v. infusion of ISO (0.04 μg/kg/min). In addition, in conscious mice ACh (0.01 and 0.05 mg/kg), atropine (0.25, 1 and 2 mg/kg), or verapamil (0.75 mg/kg) were administered i.v., and the ECG was recorded. A recovery period of 15 min was allowed for the HR to return to baseline before administering the next drug. To examine HR responses to baroreflex hypertension, phenylephrine (0.2 mg/kg i.v.) was infused, and the ECG and arterial pressure were measured

[4] = molecular target: AC2 (Rattus norvegicus, UniProt P26769); experiment: AC catalytic activity inhibition, AC2 isoform; assay type: biochemical; details: in the presence of Gsalpha/GTPgammaS/forskolin
Text: (§1) Classic inhibitors of AC include adenosine analogs or P-site inhibitors, and MDL12330A, a non-nucleic acid inhibitor.
(§2) Inventors will first determine the selectivity among the AC isoforms (FIG. 12).

[5] = molecular target: T2, AC3 (Rattus norvegicus, UniProt P21932); experiment: AC catalytic activity inhibition, AC3 isoform; assay type: biochemical; details: in the presence of Gsalpha/GTPgammaS/forskolin
T2 sequence (P21932 1-1144): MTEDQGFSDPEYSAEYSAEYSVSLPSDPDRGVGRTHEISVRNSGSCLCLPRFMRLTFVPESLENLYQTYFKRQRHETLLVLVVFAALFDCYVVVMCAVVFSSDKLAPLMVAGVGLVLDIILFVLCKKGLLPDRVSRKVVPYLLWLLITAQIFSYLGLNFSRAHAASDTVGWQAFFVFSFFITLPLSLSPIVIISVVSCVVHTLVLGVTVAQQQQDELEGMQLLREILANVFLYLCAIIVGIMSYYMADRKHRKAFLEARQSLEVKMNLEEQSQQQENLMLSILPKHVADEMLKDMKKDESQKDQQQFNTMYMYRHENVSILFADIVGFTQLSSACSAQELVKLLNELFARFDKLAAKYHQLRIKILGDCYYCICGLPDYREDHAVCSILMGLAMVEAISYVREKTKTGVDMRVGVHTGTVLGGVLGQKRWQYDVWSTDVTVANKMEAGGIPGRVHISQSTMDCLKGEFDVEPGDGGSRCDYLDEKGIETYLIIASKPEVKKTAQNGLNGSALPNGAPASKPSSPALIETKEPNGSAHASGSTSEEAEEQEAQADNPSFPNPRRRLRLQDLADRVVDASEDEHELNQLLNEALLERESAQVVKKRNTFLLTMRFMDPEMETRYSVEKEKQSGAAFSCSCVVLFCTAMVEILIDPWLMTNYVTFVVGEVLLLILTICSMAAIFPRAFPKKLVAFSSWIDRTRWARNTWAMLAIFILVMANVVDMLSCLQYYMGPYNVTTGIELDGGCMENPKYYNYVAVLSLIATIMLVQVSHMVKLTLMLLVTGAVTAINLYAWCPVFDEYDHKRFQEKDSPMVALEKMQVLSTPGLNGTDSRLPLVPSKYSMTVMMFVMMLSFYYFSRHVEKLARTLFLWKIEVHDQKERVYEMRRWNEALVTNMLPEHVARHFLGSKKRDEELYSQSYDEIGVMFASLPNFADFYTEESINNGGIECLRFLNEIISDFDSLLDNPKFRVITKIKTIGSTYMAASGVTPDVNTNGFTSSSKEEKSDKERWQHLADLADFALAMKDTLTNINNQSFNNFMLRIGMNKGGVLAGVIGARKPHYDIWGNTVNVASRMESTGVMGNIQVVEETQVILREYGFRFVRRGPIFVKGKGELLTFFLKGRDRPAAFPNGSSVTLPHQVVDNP
Text: as §1, §2

[6] = tested on: cardiac AC; experiment: AC assay in heart membrane preparations; assay type: biochemical, mouse; details: 10 μM
Procedure: FIG. 17: Adrenergic, muscarinic, and Ca^2+-mediated regulation of cardiac AC activity. A, AC activity in vitro. The steady state AC activity was determined as the maximal cAMP production over 15 min. Stimulation was performed at the level of the β-AR (ISO), G-protein (GTPγS) and AC catalytic unit with forskolin (Fsk). *P<0.01, n=5. B, Effects of carbachol on AC activity. AC was preactivated by ISO. AC activity was then determined in the absence and presence of carbachol. Carbachol at 10 μmol/L produced its maximal inhibitory effect. *P<0.01, n−5. C, To investigate the inhibition of AC activity by Ca^2+, we examined cAMP production in membranes from the hearts of WT and AC5KO at increasing Ca^2+ concentrations in the presence of ISO. ISO-stimulated AC activity was inhibited more in WT than in AC5KO. […].
Hearts were dissected from the mice and membrane preparations were prepared as described previously. Protein concentration was measured by the method of Bradford using bovine serum albumin as a standard. AC activity was measured as described previously. AC activity was linear within the incubation time up to 30 min. In order to harvest hearts for tissue cAMP content measurements, mice were allowed to acclimate to the surroundings in the laboratory for an hour before sacrifice. Freshly isolated hearts were briefly immersed in liquid nitrogen. The tissue was homogenized in ice-cold 6% percholic acid, and cAMP was extracted as described before. The concentration of cAMP was determined with an RIA kit (PerkinElmer Life Sciences, Boston, Mass., USA).
Hearts were dissected from the mice, and membrane preparations were prepared as described previously. Protein concentration was measured by the Bradford method using bovine serum albumin as a standard. AC activity was measured as described previously. AC activity was linear within the incubation time up to 30 min. For the study of Ca 2+ inhibition, the membranes were treated first with EGTA to extract the endogenous Ca 2+ prior to the assay. Free Ca 2+ concentrations were obtained with the use of 200 μmol/L EGTA buffers as described previously. The experiments with Ca 2+ inhibition were conducted in the presence of 100 μmol/L isoproterenol (ISO)+100 μmol/L GTP.

T1 sequence (P30803 whole entry, canonical isoform): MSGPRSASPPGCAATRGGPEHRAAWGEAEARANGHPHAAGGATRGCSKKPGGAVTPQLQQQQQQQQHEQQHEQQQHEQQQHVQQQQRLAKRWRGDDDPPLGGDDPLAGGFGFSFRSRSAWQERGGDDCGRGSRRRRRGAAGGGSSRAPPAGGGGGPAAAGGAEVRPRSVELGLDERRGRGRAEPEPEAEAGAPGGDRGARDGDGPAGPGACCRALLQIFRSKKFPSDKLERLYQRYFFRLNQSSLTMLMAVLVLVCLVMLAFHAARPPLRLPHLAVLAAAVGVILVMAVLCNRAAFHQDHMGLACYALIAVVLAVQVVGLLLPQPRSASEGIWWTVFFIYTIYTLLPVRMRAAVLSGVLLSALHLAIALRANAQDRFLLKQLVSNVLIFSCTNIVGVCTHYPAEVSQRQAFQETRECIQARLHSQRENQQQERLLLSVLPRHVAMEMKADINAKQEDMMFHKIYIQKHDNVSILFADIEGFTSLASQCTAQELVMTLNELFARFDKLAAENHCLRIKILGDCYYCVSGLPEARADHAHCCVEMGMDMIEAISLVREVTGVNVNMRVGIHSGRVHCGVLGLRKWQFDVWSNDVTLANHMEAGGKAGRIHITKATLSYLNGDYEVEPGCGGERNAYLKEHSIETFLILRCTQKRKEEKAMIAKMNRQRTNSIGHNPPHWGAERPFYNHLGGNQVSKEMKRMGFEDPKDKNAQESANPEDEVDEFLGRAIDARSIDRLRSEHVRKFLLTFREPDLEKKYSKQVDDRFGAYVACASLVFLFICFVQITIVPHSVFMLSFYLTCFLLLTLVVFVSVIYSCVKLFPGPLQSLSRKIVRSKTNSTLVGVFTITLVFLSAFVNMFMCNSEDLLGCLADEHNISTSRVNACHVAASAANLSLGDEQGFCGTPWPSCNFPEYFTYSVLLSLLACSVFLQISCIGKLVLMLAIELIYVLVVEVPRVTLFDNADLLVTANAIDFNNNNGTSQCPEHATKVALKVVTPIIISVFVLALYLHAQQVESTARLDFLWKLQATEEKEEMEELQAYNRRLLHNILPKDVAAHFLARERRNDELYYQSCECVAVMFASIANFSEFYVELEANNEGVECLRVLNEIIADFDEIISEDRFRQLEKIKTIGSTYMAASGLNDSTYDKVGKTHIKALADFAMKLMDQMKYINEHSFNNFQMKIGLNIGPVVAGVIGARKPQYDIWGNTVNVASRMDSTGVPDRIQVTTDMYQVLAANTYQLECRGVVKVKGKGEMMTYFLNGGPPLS

`Nc1ncnc2c1ncn2[C@H]1C[C@H](OP(=O)(O)O)[C@@H](CO)O1` [2′-d-3′-AMP] showed an IC50 [1] of 0.82 µM.
With `Nc1ncnc2c1ncn2[C@@H]1O[C@H](CO)[C@@H](OP(=O)(O)O)[C@H]1O` [3′-AMP] the IC50 [1] was 14.6 µM.
With `CC[C@@]1(C)CC(=O)[C@@]2(O)[C@]3(C)[C@H](O)CCC(C)(C)[C@H]3[C@@H](O)[C@@H](OC(C)=O)[C@]2(C)O1` [14,15-Dihydroforskolin] the “AC5 selectivity of stimulation (in words)” value [2] was “small enhancement in AC5 selectivity”.
In the case of `CC(=O)OCC[N+](C)(C)C` [ACh, acetylcholine], the “decrease of HR” value ([3]; conscious AC5KO, 0.01 μg/g i.v. (Example 2)) is reported as 7.5%, the “decrease of HR” value ([3]; conscious AC5KO, 0.01 mg/kg i.v. (Example 3)) is reported as 1.3% and the “decrease of HR” value ([3]; conscious WT, 0.01 μg/g i.v. (Example 2)) is reported as 22%. The “decrease of HR” value ([3]; conscious WT, 0.01 mg/kg i.v. (Example 3)) was 15%.
With `Nc1ncnc2c1ncn2C1CCCC1` [CPA, 9-(cyclopentyl)adenine] the “inhibition of AC2 (in words)” value [4] was “only to a modest degree”, the “inhibition of AC5 (in words)” value ([1]; in the presence of Gsalpha/GTPgammaS/forskolin) was “potently inhibited AC5” and the “inhibition of AC3 (in words)” value [5] was “only to a modest degree”.
With `C[N+](C)(C)CCOC(N)=O` [Carbachol] the “decrease of ISO-stimulated AC activity (in words)” value ([6]; AC5KO heart membranes) was “did not inhibit; also recorded: hardly detectable” and the “decrease of ISO-stimulated AC activity” value ([6]; WT heart membranes, ISO 100 μM + GTP 100 μM) was 21±3.4% and 21±3%.
With `CNC[C@H](O)c1cccc(O)c1` [Phenylephrine, phenylephrine] the “systolic arterial pressure (in words)” value ([3]; WT and AC5KO, 0.2 μg/g (0.2 mg/kg) i.v.) was “increased systolic arterial pressure significantly in both WT and AC5KO; also recorded: increased systolic arterial pressure similarly in both WT and AC5KO”.
`CN1[C@@H]2CC[C@H]1C[C@@H](OC(=O)C(CO)c1ccccc1)C2` (stereo partly drawn) [atropine] was tested, and the “increase in HR” value ([3]; conscious AC5KO) was 19±7.5 beats/min, the “increase in HR (in words)” value ([3]; conscious AC5KO, 1 mg/kg i.v. (Example 3)) was “not observed in AC5KO” and the “increase in HR” value ([3]; conscious WT) was 102±22.2 beats/min.
`COc1ccc(CCN(C)CCCC(C#N)(c2ccc(OC)c(OC)c2)C(C)C)cc1OC` (stereo not drawn) [verapamil] was tested, and the “change of HR” value ([3]; conscious AC5KO) was −33±10 beats/min and the “change of HR” value ([3]; conscious WT) was −36±10 beats/min.
